What was measured:
[1] = The inhibitory activity determined by using toluene-permeabilized cells of Escherichia coli and the specific nucleoside substrate of the translocase UMA5
[2] = Inhibitory activity of compound was determined against bacterial translocase

IC50 [1]	Structure (SMILES)	IC50 [2]
50 µM	NC[C@H]1O[C@@H](OC[C@H]2O[C@@H](n3ccc(=O)[nH]c3=O)[C@H](O)[C@@H]2O)[C@H](O)[C@@H]1O	–
–	NC[C@H]1O[C@@H](O[C@@H](CO)[C@H]2O[C@@H](n3ccc(=O)[nH]c3=O)[C@H](O)[C@@H]2O)[C@H](O)[C@@H]1O	425 µM
–	CSCCC(NC(=O)NC(Cc1cccc(O)c1)C(=O)O)C(=O)NC(C(=O)N/C=C1/CC(O)C(N2CCC(=O)NC2=O)O1)C(C)N(C)C(=O)C(N)Cc1cccc(O)c1 (stereo not given)	0.065 µM
–	NC[C@H]1O[C@@H](O[C@H](CO)[C@H]2O[C@@H](n3ccc(=O)[nH]c3=O)[C@H](O)[C@@H]2O)[C@H](O)[C@@H]1O	5 µM
–	CC(=O)N[C@H]1[C@@H](O[C@@H]2O[C@H](CC(O)[C@H]3O[C@@H](n4ccc(=O)[nH]c4=O)[C@H](O)[C@@H]3O)[C@H](O)[C@H](O)[C@H]2NC(=O)/C=C/CC(C)C)O[C@H](CO)[C@@H](N)[C@@H]1O (stereo not given in full) [TUNICAMYCIN]	0.48 µM

Reference: ChEMBL document CHEMBL1133275, “Synthesis of the nucleoside moiety of liposidomycins: elucidation of the pharmacophore of this family of MraY inhibitors” (Bioorg Med Chem Lett, 2000)
